Assay results published in US11224624B2, “Modulation of microbial synthesis of 4-etylphenol and 4-ethylphenyl sulfate in behavior and disease” (California Institute of Technology, priority 2017, dated 2022).
One block for each molecule: values may come before it.

Columns and labels:
[1] = 4EP to 4EPS conversion by cytosolic fractions from tissues of colonized mice; format: in vitro ADME, mouse; settings: colon and liver cytosolic fractions of colonized mice, FIG. 11E
Method: 4EP to 4EPS conversion was measured by cytosolic fractions from various tissues of colonized mice (FIG. 11E).

[2] = target: Sult1A1 (sulfotransferase family 1A member 1) (Homo sapiens, UniProt P50225); experiment: R&D SYSTEMS sulfotransferase assay, Sult1A1 modification of 4EP to 4EPS; format: biochemical; settings: in vitro, FIG. 11C
Method: Using R&D SYSTEMS Universal Sulfotransferase Assay Kit™, sulfation of 4-ethylphenol (4EP) or para-cresol (PC) was determined colorimetrically (FIG. 11A). Samples from the assay were pooled and analyzed by liquid chromotography mass spectrometry (LCMS) for the confirmation that 4EPS and PCS are present (FIG. 11B).
An R&D SYSTEMS assay was used to determine whether quercetin and curcumin can inhibit Sult1A1 (sulfotransferase family 1A member 1, an enzyme that catalyzes sulfate conjugation) modification of 4EP to 4EPS (FIG. 11C). […] Accordingly, it is contemplated that quercetin and curcumin in accordance with some embodiments herein can inhibit the production of 4EPS in a subject in need thereof.

wild-type mice = experiment: Open field exploration and pre-pulse inhibition assays, wild-type mice injected with 4EPS (Example 1); format: in vivo, mouse; settings: 30 mg/kg 4EPS potassium salt i.p. daily from 3 to 6 weeks of age vs saline, n=10/group
Method: To measure effects of 4EPS on wild-type mice, the wild-type mice were injected intraperitoneally (i.p.) with saline or 30 mg/kg 4EPS potassium salt daily from 3 to 6 weeks of age. Anxiety-like behavior based on center duration (See FIG. 1B) and locomotor behavior (See […]) were measured in the open field exploration assay. n=10/group. Furthermore, the potentiated startle reflex was measured in the pre-pulse inhibition (PPI) assay, and measurements were taken of startle (Vmax) (FIG. 1C) and PPI % (FIG. 1D). n=10/group.

Wildtype mice [3] = experiment: Elevated plus maze, mice injected with 4EPS; format: in vivo, mouse; settings: 30 mg/kg 4EPS potassium salt i.p. daily, 3 to 6 weeks of age, vs saline
Method: (§1) Wildtype mice were injected intraperitoneally (i.p.) with saline or 30 mg/kg 4EPS potassium salt daily from 3 to 6 weeks of age and tested for anxiety in the elevated plus maze (FIG. 4A-C), light dark box (FIG. 4D-F), and open field arena (FIG. 4G-I) assays.

Wildtype mice [4] = experiment: Light dark box, mice injected with 4EPS; format: in vivo, mouse; settings: 30 mg/kg 4EPS potassium salt i.p. daily, 3 to 6 weeks of age, vs saline
Method: as §1

Wildtype mice [5] = experiment: Open field arena, mice injected with 4EPS; format: in vivo, mouse; settings: 30 mg/kg 4EPS potassium salt i.p. daily, 3 to 6 weeks of age, vs saline
Method: as §1

Chain of Sult1A1 (sulfotransferase family 1A member 1) (P50225 whole entry, species assumed): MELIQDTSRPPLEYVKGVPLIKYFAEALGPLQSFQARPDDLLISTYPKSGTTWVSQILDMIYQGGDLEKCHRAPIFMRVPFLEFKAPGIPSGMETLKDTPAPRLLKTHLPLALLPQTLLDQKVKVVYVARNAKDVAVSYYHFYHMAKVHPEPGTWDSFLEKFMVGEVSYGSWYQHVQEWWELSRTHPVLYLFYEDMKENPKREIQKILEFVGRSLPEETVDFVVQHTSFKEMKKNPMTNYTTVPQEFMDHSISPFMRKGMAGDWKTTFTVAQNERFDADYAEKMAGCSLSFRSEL

conversion of 4EP to 4EPS [1]: Substantial conversion
Structure (SMILES): CCc1ccc(O)cc1 [4EP, 4-ethylphenol]

Structure (SMILES): O=c1c(O)c(-c2ccc(O)c(O)c2)oc2cc(O)cc(O)c12 [quercetin]
inhibition of sulfation of 4EP [2]: inhibit

Structure (SMILES): CCc1ccc(OS(=O)(=O)[O-])cc1.[K+] [4EPS, 4-ethylphenyl sulfate]
anxiety behaviors (open field center duration, startle, PPI) (wild-type mice): significantly increased anxiety behaviors
duration in the open (elevated plus maze) (Wildtype mice [3]): decreased
total terminus duration (elevated plus maze) (Wildtype mice [3]): decreased
frequency in the light (light dark box) (Wildtype mice [4]): decreased
total duration in the light (light dark box) (Wildtype mice [4]): decreased
distance moved (open field arena) (Wildtype mice [5]): comparable to saline-injected mice
total duration in center (open field arena) (Wildtype mice [5]): decreased

inhibition of sulfation of 4EP [2]: inhibit
Structure (SMILES): COc1cc(/C=C/C(=O)CC(=O)/C=C/c2ccc(O)c(OC)c2)ccc1O [curcumin]
